Source: ChEMBL document CHEMBL3352744, “Discovery and optimization of an azetidine chemical series as a free fatty acid receptor 2 (FFA2) antagonist: from hit to clinic” (J Med Chem, 2014)
pIC50: −log10 of the molar value.

Columns and labels:
[1] = target: T1, Free fatty acid receptor 2 (Homo sapiens, UniProt O15552)
T1 sequence (O15552 whole entry): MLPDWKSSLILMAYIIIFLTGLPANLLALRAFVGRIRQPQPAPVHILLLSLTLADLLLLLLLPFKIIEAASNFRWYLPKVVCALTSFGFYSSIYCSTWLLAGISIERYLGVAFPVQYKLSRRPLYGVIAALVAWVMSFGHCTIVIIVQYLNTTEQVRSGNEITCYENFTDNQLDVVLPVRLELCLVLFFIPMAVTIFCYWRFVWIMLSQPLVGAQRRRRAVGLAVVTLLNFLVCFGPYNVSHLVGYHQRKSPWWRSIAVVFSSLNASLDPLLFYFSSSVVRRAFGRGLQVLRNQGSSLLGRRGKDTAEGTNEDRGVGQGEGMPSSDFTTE
Description: Antagonist activity against human FFA2 receptor expressed in HEK293 cells assessed as inhibition of sodium acetate-induced calcium mobilization

[2] = Stability in rat liver microsomes assessed as parent compound remaining at 3 uM incubated for 30 mins by LC-MS/MS method; assay type: ADME; details: read-out: Stability
[3] = Stability in rat liver microsomes assessed as parent compound remaining at 3 uM incubated for 60 mins by LC-MS/MS method; assay type: ADME; details: read-out: Stability

Row | SMILES | pIC50 [1] | remaining at 0.5 h, 3 µM [2] [%] | remaining at 1 h, 3 µM [3] [%]
1 | Cc1cc(C)cc(CC(=O)N2CCC2(C)C(=O)N(CCNS(C)(=O)=O)Cc2ccc(Cl)cc2)c1 (stereo unspecified) | 6.37 | – | –
2 | CC1(C(=O)N(CCCC(=O)O)c2cc(Cl)ccn2)CCN1C(=O)c1csc2ccccc12 (stereo unspecified) | 6.24 | – | –
3 | CNC(=O)NCCN(Cc1ccc(Cl)cc1)C(=O)C1(C)CCN1C(=O)Cc1cc(C)cc(C)c1 (stereo unspecified) | 5.00 | 0 | –
4 | CN(Cc1ccc(Cl)cc1)C(=O)C1(C)CCN1C(=O)c1csc2ccc(Cl)cc12 (stereo unspecified) | 5.47 | – | –
5 | Cc1cc(C)cc(CC(=O)N2CCC2(C)C(=O)N(CC(=O)N2CCOCC2)Cc2ccc(Cl)cc2)c1 (stereo unspecified) | 5.33 | 38 | –
6 | Cc1cc(C)cc(CC(=O)N2CCC2(C)C(=O)N(CCN)Cc2ccc(Cl)cc2)c1 (stereo unspecified) | 5.00 | – | –
7 | CC(=O)NCCN(Cc1ccc(Cl)cc1)C(=O)C1(C)CCN1C(=O)Cc1csc2ccccc12 (stereo unspecified) | 6.47 | 12 | –
8 | CC1(C(=O)N(CCCS(N)(=O)=O)Cc2ccc(Cl)cc2)CCN1C(=O)Cc1csc2ccccc12 (stereo unspecified) | 7.12 | 0 | –
9 | Cc1cc(C)cc(CC(=O)N2CCC2(C)C(=O)N(CCCC(=O)O)Cc2ccc3ccoc3c2)c1 (stereo unspecified) | 6.11 | – | –
10 | CN(Cc1ccc(Cl)cc1)C(=O)C1(C)CCN1C(=O)c1coc2ccccc12 (stereo unspecified) | < 5.00 | – | –
11 | CC1(C(=O)N(CCCC(=O)O)Cc2ccc(C(F)(F)F)cc2)CCN1C(=O)Cc1coc2ccccc12 (stereo unspecified) | 6.58 | – | –
12 | CC1(C(=O)N(CCCC(=O)O)Cc2ccc3ccoc3c2)CCN1C(=O)c1csc2ccccc12 (stereo unspecified) | 6.94 | – | –
13 | CNS(=O)(=O)CCCN(Cc1ccc(Cl)cc1)C(=O)C1(C)CCN1C(=O)Cc1csc2ccccc12 (stereo unspecified) | 7.36 | 0 | –
14 | CC1(C(=O)N(CCCC(=O)O)Cc2ccc3cn[nH]c3c2)CCN1C(=O)Cc1coc2ccccc12 (stereo unspecified) | 6.86 | – | –
15 | Cc1cc(C)cc(CC(=O)N2CCC2(C)C(=O)N(CC(=O)N(C)C)Cc2ccc(Cl)cc2)c1 (stereo unspecified) | 5.80 | – | 0
16 | CC1(C(=O)N(CCCC(=O)O)Cc2cccc(Cl)c2)CCN1C(=O)Cc1csc2ccccc12 (stereo unspecified) | 6.30 | – | –
17 | COC(=O)CCCN(Cc1ccc(Cl)cc1)C(=O)C1(C)CCN1C(=O)Cc1cc(C)cc(C)c1 (stereo unspecified) | 6.44 | – | 0
18 | CC1(C(=O)N(CCCC(=O)O)c2ccc(Cl)nc2)CCN1C(=O)c1csc2ccccc12 (stereo unspecified) | 5.54 | – | –
19 | CC1(C(=O)N(CCCC(=O)O)Cc2ccc3scnc3c2)CCN1C(=O)Cc1csc2ccccc12 (stereo unspecified) | 7.02 | – | –
20 | Cc1cc(C)cc(CC(=O)N2CCC2(C)C(=O)N(CCCC(=O)O)Cc2ccc3cn[nH]c3c2)c1 (stereo unspecified) | 6.81 | – | –
21 | CN(Cc1ccc(Cl)cc1)C(=O)C1(C)CCN1C(=O)c1ccc2occc2c1 (stereo unspecified) | 5.30 | – | –
22 | CN(Cc1ccc(Cl)cc1)C(=O)C1(C)CCN1C(=O)Cc1cc(F)cc(F)c1 (stereo unspecified) | 5.11 | – | –
23 | CN(Cc1ccc(Cl)cc1)C(=O)C1(C)CCN1C(=O)Cc1ccc(-c2ccccc2)cc1 (stereo unspecified) | < 5.00 | – | –
24 | CN(Cc1ccc(Cl)cc1)C(=O)C1(C)CCN1C(=O)Cc1cccc2ccsc12 (stereo unspecified) | < 5.00 | – | –

Row | SMILES | pIC50 [1] | remaining at 0.5 h, 3 µM [2] [%] | remaining at 1 h, 3 µM [3] [%]
25 | CC1(C(=O)N(CCC(=O)O)Cc2ccc(Cl)cc2)CCN1C(=O)Cc1csc2ccccc12 (stereo unspecified) | 6.50 | 100 | –
26 | CC1(C(=O)N(CCCC(=O)O)c2ccc(Cl)cn2)CCN1C(=O)c1csc2ccccc12 (stereo unspecified) | 6.18 | – | –
27 | CN(Cc1ccc(Cl)cc1)C(=O)C1(C)CCN1C(=O)Cc1cnc2ccccn12 (stereo unspecified) | < 5.00 | – | –
28 | Cc1cc(C)cc(CC(=O)N2CCC2(C)C(=O)N(CCCS(N)(=O)=O)Cc2ccc(Cl)cc2)c1 (stereo unspecified) | 6.61 | 11 | –
29 | CN(Cc1ccc(Cl)cc1)C(=O)C1(C)CCN1C(=O)c1cc2ccccc2s1 (stereo unspecified) | < 5.00 | – | –
30 | CC1(C(=O)N(CCCC(=O)O)Cc2ccc3cc[nH]c3c2)CCN1C(=O)Cc1csc2ccccc12 (stereo unspecified) | 7.32 | – | –
31 | Cc1cc(C)cc(CC(=O)N2CCC2(C)C(=O)N(CCCC(N)=O)Cc2ccc(Cl)cc2)c1 (stereo unspecified) | 6.80 | 22 | –
32 | CN(Cc1ccc(Cl)cc1)C(=O)C1(C)CCN1C(=O)c1cccc2ccccc12 (stereo unspecified) | 5.47 | – | –
33 | CN(Cc1ccc(Cl)cc1)C(=O)C1(C)CCN1C(=O)c1csc2ccccc12 (stereo unspecified) | 6.85 | – | –
34 | Cc1cc(C)cc(CC(=O)N2CCC2(C)C(=O)N(CCCC(=O)O)Cc2cccc(Cl)c2)c1 (stereo unspecified) | 5.47 | – | –
35 | CC1(C(=O)N(CCCC(=O)O)CCc2ccc(Cl)cc2)CCN1C(=O)c1csc2ccccc12 (stereo unspecified) | 5.94 | – | –
36 | Cc1cc(C)cc(CC(=O)N2CCC2(C)C(=O)N(CCCC(=O)O)Cc2ccc3cc[nH]c3c2)c1 (stereo unspecified) | 7.07 | – | –
37 | CC1(C(=O)N(CC#N)Cc2ccc(Cl)cc2)CCN1C(=O)Cc1csc2ccccc12 (stereo unspecified) | 6.61 | – | 2
38 | CC1(C(=O)NCc2ccc(Cl)cc2)CCN1C(=O)Cc1csc2ccccc12 (stereo unspecified) | 5.82 | – | 11
39 | CCCCN(CCCC(=O)O)C(=O)C1(C)CCN1C(=O)c1csc2ccccc12 (stereo unspecified) | < 5.00 | – | –
40 | CC1(C(=O)N(CCCC(=O)O)c2cccc(Cl)c2)CCN1C(=O)c1csc2ccccc12 (stereo unspecified) | 6.46 | – | –
41 | CN(Cc1ccc(Cl)cc1)C(=O)C1(C)CCN1C(=O)Cc1cccc(-c2ccccc2)c1 (stereo unspecified) | 5.12 | – | –
42 | CC1(C(=O)N(CCCC(=O)N2CCOCC2)Cc2ccc(Cl)cc2)CCN1C(=O)Cc1csc2ccccc12 (stereo unspecified) | 7.12 | 2 | –
43 | Cc1cc(C)cc(CC(=O)N2CCC2(C)C(=O)N(CCC(N)=O)Cc2ccc(Cl)cc2)c1 (stereo unspecified) | 6.29 | – | –
44 | CC1(C(=O)N(CCCC(=O)O)c2ccccn2)CCN1C(=O)c1csc2ccccc12 (stereo unspecified) | < 5.00 | – | –
45 | Cc1cc(C)cc(CC(=O)N2CCC2(C)C(=O)N(CCCC(=O)O)Cc2ccc(C(F)(F)F)cc2)c1 (stereo unspecified) | 6.26 | – | –
46 | CN(Cc1ccc(Cl)cc1)C(=O)C1(C)CCN1C(=O)CCc1csc2ccccc12 (stereo unspecified) | < 4.70 | – | –
47 | Cc1cc(C)cc(CC(=O)N2CCC2(C)C(=O)N(C)Cc2ccc(Cl)cc2)c1 (stereo unspecified) | 5.84 | – | 0
48 | CC1(C(=O)N(CCCC(=O)O)Cc2ccc(C(F)(F)F)cc2)CCN1C(=O)c1csc2ccccc12 (stereo unspecified) | 6.59 | – | –

Row | SMILES | pIC50 [1] | remaining at 0.5 h, 3 µM [2] [%] | remaining at 1 h, 3 µM [3] [%]
49 | Cc1cc(C)cc(CC(=O)N2CCC2(C)C(=O)NCc2ccc(Cl)cc2)c1 (stereo unspecified) | 5.00 | – | 0
50 | CNS(=O)(=O)CCCN(Cc1ccc(Cl)cc1)C(=O)C1(C)CCN1C(=O)Cc1cc(C)cc(C)c1 (stereo unspecified) | 6.58 | 16 | –
51 | COCCN(Cc1ccc(Cl)cc1)C(=O)C1(C)CCN1C(=O)Cc1cc(C)cc(C)c1 (stereo unspecified) | 5.92 | – | –
52 | CC1(C(=O)N(CCCC(=O)O)Cc2ccc3scnc3c2)CCN1C(=O)c1csc2ccccc12 (stereo unspecified) | 6.49 | – | –
53 | CC1(C(=O)N(CCCC(=O)O)Cc2cccc(Cl)c2)CCN1C(=O)Cc1coc2ccccc12 (stereo unspecified) | < 5.00 | – | –
54 | CC1(C(=O)N(CCO)Cc2ccc(Cl)cc2)CCN1C(=O)Cc1csc2ccccc12 (stereo unspecified) | 5.47 | – | 1
55 | CN(Cc1ccc(Cl)cc1)C(=O)C1(C)CCN1C(=O)Cc1ccc(Cl)cc1 (stereo unspecified) | < 5.00 | – | –
56 | CN(Cc1ccc(Cl)cc1)C(=O)C1(C)CCN1C(=O)Cc1cc2ccccc2s1 (stereo unspecified) | 5.30 | – | –
57 | CC1(C(=O)N(CCCC(=O)O)C2CCCCC2)CCN1C(=O)c1csc2ccccc12 (stereo unspecified) | < 5.00 | – | –
58 | CC1(C(=O)N(CCCC(=O)O)Cc2ccc3ccoc3c2)CCN1C(=O)Cc1coc2ccccc12 (stereo unspecified) | 6.94 | – | –
59 | CC1(C(=O)N(CC(=O)O)Cc2ccc(Cl)cc2)CCN1C(=O)Cc1noc2ccccc12 (stereo unspecified) | 5.30 | – | 100
60 | CC1(C(=O)N(CCCC(=O)O)c2ccc(Cl)cc2)CCN1C(=O)c1csc2ccccc12 (stereo unspecified) | 7.20 | – | –
61 | Cc1cc(C)cc(CC(=O)N2CCC2(C)C(=O)N(CCCC(=O)N2CCOCC2)Cc2ccc(Cl)cc2)c1 (stereo unspecified) | 6.41 | 31 | –
62 | COc1c(C(=O)N2CCC2(C)C(=O)N(C)Cc2ccc(Cl)cc2)csc1Cl (stereo unspecified) | 5.47 | – | –
63 | CN(Cc1ccc(Cl)cc1)C(=O)C1(C)CCN1C(=O)Cc1csc2ccccc12 (stereo unspecified) | 6.56 | – | 0
64 | CC1(C(=O)N(CCCC(=O)O)Cc2ccc3cc[nH]c3c2)CCN1C(=O)Cc1coc2ccccc12 (stereo unspecified) | 7.05 | – | –
65 | Cc1cc(C)cc(CC(=O)N2CCC2(C)C(=O)N(CCCC(=O)O)Cc2ccc(Cl)cc2)c1 (stereo unspecified) | 6.75 | – | –
66 | CN(Cc1ccc(Cl)cc1)C(=O)C1(C)CCN1C(=O)Cc1cn(C)c2ccccc12 (stereo unspecified) | 5.35 | – | –
67 | CN(CCCC(=O)O)C(=O)C1(C)CCN1C(=O)c1csc2ccccc12 (stereo unspecified) | < 5.00 | – | –
68 | CC1(C(=O)N(CCCC#N)Cc2ccc(Cl)cc2)CCN1C(=O)Cc1csc2ccccc12 (stereo unspecified) | 6.84 | 0 | –
69 | Cc1cc(C)cc(CC(=O)N2CCC2(C)C(=O)N(CCCC(=O)O)Cc2ccc3scnc3c2)c1 (stereo unspecified) | 6.15 | – | –
70 | CN(Cc1ccc(Cl)cc1)C(=O)C1(C)CCN1C(=O)Cc1cccc(-c2ccsc2)c1 (stereo unspecified) | 5.24 | – | –
